Measured values reported in patent US20210220358A1, “1,3-THIAZOL-2-YL SUBSTITUTED BENZAMIDES FOR THE TREATMENT OF DISEASES ASSOCIATED WITH NERVE FIBER SENSITIZATION” (Bayer Aktiengesellschaft, priority 2018, published 2021).

Columns and labels:
healthy young males [1] = assay: Adverse events (side effect profile) in multiple dose study; type: in vivo, humans
Protocol: In a first part of a two-part, double-blind, placebo-controlled, randomized, parallel-group study safety and tolerability of ascending repeated oral doses of the drug to be tested are assessed in 47 healthy male volunteers, followed by a second two-way crossover administration of four different doses in 40 patients with refractory chronic cough to assess safety, tolerability and efficacy for proof of concept.
(§1) In the first part of the above-described protocol, 3-(5-Methyl-1,3-thiazol-2-yl)-5-[(3R)-tetrahydrofuran-3-yloxy]-N-{(1R)-1-[2-(trifluoromethyl)pyrimidin-5-yl]ethyl}-benzamide has been administered as multiple oral dose with increasing amounts starting from 10 mg per subject twice daily to 750 mg per subject twice daily in comparison with placebo to healthy young males. […] The treatment duration was 14 days.
In a first part of a two-part, double-blind, placebo-controlled, randomized, parallel-group study, the safety and tolerability of ascending repeated oral doses of the drug to be tested are assessed in 36 healthy male volunteers, followed by a second part with a two-way crossover administration of four different doses in patients with refractory chronic cough to assess safety, tolerability and efficacy for proof of concept.
(§2) The treatment duration was 14 days.

healthy young males [2] = assay: Taste related adverse events recorded during clinical studies; type: in vivo, humans
From the text: Taste related adverse events describe adverse events that lead to a change in taste perception, e.g. dysgeusia (distortion of taste), hypogeusia (decrease in taste sensitivity) and ageusia (complete lack of taste).
Adverse events (AE) in the context of a clinical study are defined as any untoward medical occurrence (i.e. any unfavorable and unintended sign including abnormal laboratory findings, symptom or disease) in a patient or clinical investigation subject after providing written informed consent for participation in the study. Therefore, an AE may or may not be temporally or causally associated with the use of a medicinal (investigational) product.
3-(5-Methyl-1,3-thiazol-2-yl)-5-[(3R)-tetrahydrofuran-3-yloxy]-N-{(1R)-1-[2-(trifluoromethyl)pyrimidin-5-yl]ethyl}benzamide has been administered as single oral dose with increasing amounts starting from 10 mg per subject to 800 mg per subject in comparison with placebo to healthy young males.
as §1, §2

healthy young males [3] = assay: Taste assessment test (Taste Strips) during clinical studies; type: in vivo, humans
From the text: The Taste Strips (Burghart Messtechnik GmbH) are a validated test method for ascertaining tasting performance (ISO certified). The following concentrations have been applied on the taste strips: sweet: 0.4, 0.2, 0.1, 0.05 g/ml sucrose; sour: 0.3, 0.165, 0.09, 0.05 g/ml citric acid; salty: 0.25, 0.1, 0.04, 0.016 g/ml sodium chloride; bitter: 0.006, 0.0024, 0.0009, 0.0004 g/ml quinine hydrochloride. The Strips were used to check the tasting performance of the whole mouth by placing a Taste Strip on the tongue and closing the mouth (the subject can move the tongue). […] Afterwards and between the 4 taste strips the mouth was rinsed with a sip of tap water according to individual needs. […] The taste strips were presented in a pseudo-randomized order (increasing concentration for each quality) and placed on the tongue. The subject's task was to choose one of five possible answers on a form (sweet, sour, salty, bitter, no taste). Before and after each testing, the mouth was rinsed with a sip of tap water according to individual needs. The lowest concentrations of each taste quality should have been identified by half of the healthy subjects only; the highest concentration should have been identified by approximately 100% of the subjects.
The taste strips were tested under blinded conditions to the subject. The number of correctly identified taste strips per subjects was counted with the maximum number achievable being 18 points (4 concentration/taste quality plus to blank paper strips).

[4] = system: human P2X3 and human P2X2/3 receptors; conditions: cited from earlier work
human vagus nerve = assay: Vagal depolarization - inhibition of human vagus nerve by P2X3 inhibitors (grease-gap recording); conditions: TRPV4 agonist GSK 1016790A 300 nM; FIG. 1
Protocol: The aim of the study is to test the effects of P2X3 antagonists on the deoplarisation of human vagus nerve as an ex vivo measure of blocking Chronic Cough. Human vagal tissue was dissected from 4 human lungs (obtained from healthy tissue donors).
The tissue was assayed using an O2/CO2 gassed, grease-gap recording system as described in Birrell et al, Am J Respir Crit Care Med. 2009, 180:1042-1047; Bonvini et al, J Allergy Clin Immunol. 2016, 138 (1), 249-261, Bonvini et al, Naunyn Schmiedebergs Arch Pharmacol. 2015, 388: 401-420. Briefly, after the tissue had stabilised it was exposed to two 2 minute challenges with a sub-maximal concentration of agonists (TRPV4 agonist GSK 1016790A, 300 nM). Sub-maximal concentration means a concentration where no full efficacy is observed, i.e. stimulation with the agonist within the dynamic range. Typical values are 80% of the maximal efficacy that can be achieved. The tissue was then exposed to vehicle (0.1 Vol % DMSO solution in Krebs buffer) or test compound for 10 minutes and then the tissue was re-challenged with agonist in the presence of the test compound. […] Only one experiment was performed on each piece of tissue and n=4 means tissue from 4 different lungs[…]. The data was electrophysiologically recorded as actual depolarisation levels and presented as mean percentage inhibition. Results can be found in FIG. 1.

treated subjects = conditions: Clinical Phase II trials (Abdulqawi et al 2015; Strand et al 2015); cited from earlier work
[5] = multiple oral dose 10 mg to 750 mg twice daily, 14 days

Row | Structure (SMILES) | nausea (healthy young males [1]; multiple dose study, 50 mg dose) | adverse events physical dependency, increased heart rate, xerostomia, constipation, drowsiness and sedation (healthy young males [1]; [5]) | taste AE duration (healthy young males [2]; 1 subject treated with 200 mg twice daily, on day 11) [h] | influence on perception of taste based on spontaneously reported adverse events (healthy young males [2]; [5]) | course of change in taste perception (healthy young males [2]; one subject treated with 200 mg twice daily) | taste AE duration (healthy young males [2]; one subject treated with 750 mg twice daily, on day 3) [h] | taste related adverse events (healthy young males [2]; single oral dose, 10 mg to 800 mg per subject, versus placebo) | effects on taste perception based on the taste assessment test (healthy young males [3]; [5]) | changes in taste scores under treatment (healthy young males [3]; single oral dose 10 mg to 800 mg) | effects on taste perception based on the taste assessment test (healthy young males [3]; single oral dose 10 mg to 800 mg, tests at baseline, 3 hrs and 6 days after drug administration) | selectivity P2X3 homomer versus P2X2/3 [4] | effect size / efficacy in blocking vagus nerve depolarization, compared between compounds (human vagus nerve) | taste disturbances in treated subjects (treated subjects)
1 | Cc1cnc(-c2cc(O[C@@H]3CCOC3)cc(C(=O)N[C@H](C)c3cnc(C(F)(F)F)nc3)c2)s1 [3-(5-methyl-1,3-thiazol-2-yl)-5-[(3R)-tetrahydrofuran-3-yloxy]-N-{(1R)-1-[2-(trifluoromethyl)pyrimidin-5-yl]ethyl}benzamide] | one case of nausea | no such adverse events | 2 | in few subjects only | repeatedly occurring during continued treatment starting on treatment day 4 and lasting until 5 days after end of treatment | 0.5 | No taste related adverse were observed | no relevant effects on taste perception (No relevant effects on taste perception in the context of the present invention mean that no effect on taste perception has been observed in at least 80% of subjects under treatment according to the above-described protocol over a period of 14 days) | no significant or relevant changes in taste scores were observed | no relevant effects on taste perception were observed | – | – | –
2 | COc1cc(C(C)C)c(Oc2cnc(N)nc2N)cc1S(N)(=O)=O [AF-219, 5-(2,4-diamino-pyrimidin-5-yloxy)-4-isopropyl-2-methoxy-benzenesulfonamide] | – | – | – | – | – | – | – | – | – | – | P2X3 and P2X2/3 non-selective | the effect size observed was the same | leads to taste disturbances in treated subjects
